Data taken from patent US12377104B1, “Methods for treating a fatty liver disease” (Madrigal Pharmaceuticals, Inc., priority 2024, dated 2025).
“And” between values parts separate entries of the source, which are not always exact repeats. Equal entries are not always repeated.

Tested on: adults with biopsy-confirmed NASH
Experiment: MAESTRO-NASH: lipids, lipoproteins and lipid particles
Format: in vivo, human
Settings: 80 mg; for ApoB, Least Squares Mean % CFB / ApoB, Least Squares Mean % CFB Difference from PBO / LDL-C, Least Squares Mean % CFB / LDL-C, Least Squares Mean % CFB Difference from PBO: baseline LDL-C >100 mg/dL; for Lp(a), LS mean % CFB / Lp(a), LS mean % CFB difference from PBO: baseline Lp(a) >10 nmol/L; for Triglycerides, LS mean % CFB / Triglycerides, LS mean % CFB difference from PBO: baseline triglycerides >150 mg/dL
Experimental: Within the study, we provided analyses based on an analysis of covariance (ANCOVA) model after having performed single imputation for LDL-C as described in the statistical analysis plan (SAP). The ANCOVA model estimated least-squares means using treatment and baseline LDL-C as covariate.
To this end, the Week 24 LDL-C assessment and assessments at any visit in which LDL-C is measured (Weeks 4, 12, 16, 20, 24, 28, 32, 36, 40, 44, 48, and 52) that has been impacted by kit shortage at the prior visit (unavailability of […] (IP) during the 4 weeks preceding the visit due to the COVID-19 pandemic as indicated on the electronic case report form (eCRF)), were considered missing and were imputed from an unaffected assessment at surrounding visits or using data from subjects unaffected by this intercurrent event as described in Section 11.2 of the SAP. In summary, single imputation utilizing adjacent and valid […] measurements were imputed.
For missing lipid data that are still missing after the single imputation approach described, those missing lipid data were imputed using the non-missing lipid values (including the singly imputed data) based on missing at random (MAR)-based (MI). When applying the MAR-based […], data were imputed separately by randomized treatment group and baseline stratification factors.

SMILES: CC(C)c1cc(Oc2c(Cl)cc(-n3nc(C#N)c(=O)[nH]c3=O)cc2Cl)n[nH]c1=O [Resmetirom, 2-(3,5-dichloro-4-((5-isopropyl-6-oxo-1,6-dihydropyridazin-3-yl)oxy)phenyl)-3,5-dioxo-2,3,4,5-tetrahydro-1,2,4-triazine-6-carbonitrile]
- Apolipoprotein B level, difference from placebo (wk 24): −17.2 percentage points
- Apolipoprotein B level, least-squares mean percent change from baseline (wk 24): −16.8 ± 1.3%
- LDL cholesterol level, difference from placebo (wk 24): −13.7 percentage points
- LDL cholesterol level, least-squares mean percent change from baseline (wk 24): −13.6% and −13.6 ± 1.7%
- Lipoprotein(a) level, difference from placebo (wk 24): −29.5 percentage points
- Triglyceride level, difference from placebo (wk 24): −20.1 percentage points
- Lipoprotein(a) level, least-squares mean percent change from baseline (wk 24, baseline lipoprotein(a) >10 nmol per liter): −30.4 ± 3.8%
- Triglyceride level, least-squares mean percent change from baseline (wk 24, baseline triglyceride >150 mg per deciliter): −22.7 ± 4.0%
- ApoB, LS mean % CFB (Week 24): −16.8%
- ApoB, LS mean % CFB difference from PBO (Week 24): −17.2%
- ApoCIII, Least Squares Mean % CFB (Week 24): −10.6%
- ApoCIII, Least Squares Mean % CFB Difference from PBO (Week 24): −18.7%
- HDL-C, Least Squares Mean % CFB (Week 24): 2.7%
- HDL-C, Least Squares Mean % CFB Difference from PBO (Week 24): 0.98%
- LDL-C, LS mean % CFB (Week 24): −13.6%
- LDL-C, LS mean % CFB difference from PBO (Week 24): −13.7%
- Non-HDL-C, Least Squares Mean % CFB (Week 24): −15.2%
- Non-HDL-C, Least Squares Mean % CFB Difference from PBO (Week 24): −15.4%
- ApoB, Least Squares Mean % CFB (Week 24): −21.9%
- ApoB, Least Squares Mean % CFB Difference from PBO (Week 24): −18.1%
- LDL-C, Least Squares Mean % CFB (Week 24): −21.3%
- LDL-C, Least Squares Mean % CFB Difference from PBO (Week 24): −15.4%
- ApoCIII, Least Squares Mean % CFB (Week 52): −10.0%
- ApoCIII, Least Squares Mean % CFB Difference from PBO (Week 52): −19.8%
- HDL particle size, Least Squares Mean % CFB (Week 52): 0.90%
- HDL particle size, Least Squares Mean % CFB Difference from PBO (Week 52): 0.60%
- HDL particles, Least Squares Mean % CFB (Week 52): 5.2%
- HDL particles, Least Squares Mean % CFB Difference from PBO (Week 52): 3.6%
- HDL-C, Least Squares Mean % CFB (Week 52): 4.7%
- HDL-C, Least Squares Mean % CFB Difference from PBO (Week 52): 2.1%
- LDL particle size, Least Squares Mean % CFB (Week 52): −0.32%
- LDL particle size, Least Squares Mean % CFB Difference from PBO (Week 52): −0.36%
- LDL particles, Least Squares Mean % CFB (Week 52): −16.8%
- LDL particles, Least Squares Mean % CFB Difference from PBO (Week 52): −16.1%
- Large HDL particles, Least Squares Mean % CFB (Week 52): 12.3%
- Large HDL particles, Least Squares Mean % CFB Difference from PBO (Week 52): 0.06%
- Large LDL particles, Least Squares Mean % CFB (Week 52): 47.8%
- Large LDL particles, Least Squares Mean % CFB Difference from PBO (Week 52): −38.6%
- Large VLDL and chylomicron particles, Least Squares Mean % CFB (Week 52): −5.7%
- Large VLDL and chylomicron particles, Least Squares Mean % CFB Difference from PBO (Week 52): −16.8%
- Medium HDL particles, Least Squares Mean % CFB (Week 52): 88.2%
- Medium HDL particles, Least Squares Mean % CFB Difference from PBO (Week 52): 23.1%
- Medium VLDL particles, Least Squares Mean % CFB (Week 52): −18.7%
- Medium VLDL particles, Least Squares Mean % CFB Difference from PBO (Week 52): −134.5%
- Non-HDL-C, Least Squares Mean % CFB (Week 52): −15.7%
- Non-HDL-C, Least Squares Mean % CFB Difference from PBO (Week 52): −15.3%
- Small LDL particles, Least Squares Mean % CFB (Week 52): −3.3%
- Small LDL particles, Least Squares Mean % CFB Difference from PBO (Week 52): −25.0%
- Small VLDL particles, Least Squares Mean % CFB (Week 52): 62.9%
- Small VLDL particles, Least Squares Mean % CFB Difference from PBO (Week 52): -21.3%
- VLDL and chylomicron particles, Least Squares Mean % CFB (Week 52): −11.2%
- VLDL and chylomicron particles, Least Squares Mean % CFB Difference from PBO (Week 52): −19.4%
- VLDL and chylomicron triglycerides, Least Squares Mean % CFB (Week 52): −14.7%
- VLDL and chylomicron triglycerides, Least Squares Mean % CFB Difference from PBO (Week 52): −19.6%
- VLDL particle size, Least Squares Mean % CFB (Week 52): 1.9%
- VLDL particle size, Least Squares Mean % CFB Difference from PBO (Week 52): −0.05%
- ApoB, Least Squares Mean % CFB (Week 52): −25.0%
- ApoB, Least Squares Mean % CFB Difference from PBO (Week 52): −18.5%
- LDL-C, Least Squares Mean % CFB (Week 52): −25.3%
- LDL-C, Least Squares Mean % CFB Difference from PBO (Week 52): −15.7%
- Lp(a), LS mean % CFB (week 24): 30.4%
- Lp(a), LS mean % CFB difference from PBO (week 24): -29.5%
- Triglycerides, LS mean % CFB (week 24): -22.7%
- Triglycerides, LS mean % CFB difference from PBO (week 24): −20.1%
- ApoB, LS mean % CFB (week 52): -16.2%
- ApoB, LS mean % CFB difference from PBO (week 52): −16.8%
- LDL-C, LS mean % CFB (week 52): -13.7%
- LDL-C, LS mean % CFB difference from PBO (week 52): −13.3%
- Lp(a), LS mean % CFB (week 52): −34.0%
- Lp(a), LS mean % CFB difference from PBO (week 52): −29.5%
- Triglycerides, LS mean % CFB (week 52): −22.5%
- Triglycerides, LS mean % CFB difference from PBO (week 52): −19.0%
